Source: patent US20260183275A1, “SUBSTITUTED QUINOLONE COMPOUNDS USEFUL AS INHIBITORS OF TLR9” (Bristol-Myers Squibb Company, priority 2022, published 2026)

Assays:
Assay type in all cases: cell-based
human TLR9 = target: T1, human TLR9 (Homo sapiens, UniProt Q9NR96); assay: TLR9 inhibition reporter assay (HEK-Blue cells, SEAP reporter); details: HEK-Blue cells overexpressing human TLR9; stimulated with ODN2006 5 nM; SEAP read after 22 hour; dose range 0.05 nM-50 μM
T1 construct: host or cells: HEK-Blue cells
T1 sequence (Q9NR96 26-1032): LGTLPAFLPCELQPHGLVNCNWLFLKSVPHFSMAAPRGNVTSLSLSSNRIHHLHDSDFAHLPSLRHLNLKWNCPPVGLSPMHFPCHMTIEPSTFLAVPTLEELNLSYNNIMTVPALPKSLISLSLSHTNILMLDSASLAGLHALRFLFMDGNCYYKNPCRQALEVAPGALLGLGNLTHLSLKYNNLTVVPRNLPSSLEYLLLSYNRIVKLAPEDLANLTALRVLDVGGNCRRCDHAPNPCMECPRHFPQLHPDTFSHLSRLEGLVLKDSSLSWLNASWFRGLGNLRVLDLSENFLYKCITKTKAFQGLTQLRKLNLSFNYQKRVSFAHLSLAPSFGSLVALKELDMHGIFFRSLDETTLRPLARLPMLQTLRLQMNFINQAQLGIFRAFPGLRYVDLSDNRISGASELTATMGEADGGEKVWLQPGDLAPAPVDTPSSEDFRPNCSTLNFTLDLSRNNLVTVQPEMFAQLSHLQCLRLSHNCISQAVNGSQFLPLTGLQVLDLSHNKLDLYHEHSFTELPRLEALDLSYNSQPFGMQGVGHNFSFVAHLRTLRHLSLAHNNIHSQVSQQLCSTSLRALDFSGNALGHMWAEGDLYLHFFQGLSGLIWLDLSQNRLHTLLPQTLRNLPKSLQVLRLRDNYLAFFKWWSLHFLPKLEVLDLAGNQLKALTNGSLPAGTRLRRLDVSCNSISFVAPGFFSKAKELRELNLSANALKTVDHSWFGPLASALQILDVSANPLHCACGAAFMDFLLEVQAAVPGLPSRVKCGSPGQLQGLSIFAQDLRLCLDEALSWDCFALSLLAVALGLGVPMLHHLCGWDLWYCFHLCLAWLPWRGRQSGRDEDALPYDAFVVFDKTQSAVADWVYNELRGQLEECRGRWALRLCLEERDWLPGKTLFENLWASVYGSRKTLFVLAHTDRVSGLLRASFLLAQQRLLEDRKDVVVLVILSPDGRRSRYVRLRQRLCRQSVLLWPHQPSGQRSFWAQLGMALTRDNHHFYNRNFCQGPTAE
In short: (§1)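 HEK-Blue cells with NF-κB/AP-1-driven SEAP pre-treated 30 min with compounds (0.05 nM-50 μM), then stimulated with gardiquimod 7.5 μM (TLR7), R848 15.9 μM (TLR8) or ODN2006 5 nM (TLR9). SEAP read after 22 h at 37° C; % inhibition relative to agonist+DMSO and reference-inhibitor wells.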

human TLR7 = target: T2, human TLR7 (Homo sapiens, UniProt Q9NYK1); assay: TLR7 inhibition reporter assay (HEK-Blue cells, SEAP reporter); details: HEK-Blue cells overexpressing human TLR7; stimulated with gardiquimod 7.5 μM; SEAP read after 22 hour; dose range 0.05 nM-50 μM
T2 construct: host or cells: HEK-Blue cells
T2 sequence (Q9NYK1 27-1049): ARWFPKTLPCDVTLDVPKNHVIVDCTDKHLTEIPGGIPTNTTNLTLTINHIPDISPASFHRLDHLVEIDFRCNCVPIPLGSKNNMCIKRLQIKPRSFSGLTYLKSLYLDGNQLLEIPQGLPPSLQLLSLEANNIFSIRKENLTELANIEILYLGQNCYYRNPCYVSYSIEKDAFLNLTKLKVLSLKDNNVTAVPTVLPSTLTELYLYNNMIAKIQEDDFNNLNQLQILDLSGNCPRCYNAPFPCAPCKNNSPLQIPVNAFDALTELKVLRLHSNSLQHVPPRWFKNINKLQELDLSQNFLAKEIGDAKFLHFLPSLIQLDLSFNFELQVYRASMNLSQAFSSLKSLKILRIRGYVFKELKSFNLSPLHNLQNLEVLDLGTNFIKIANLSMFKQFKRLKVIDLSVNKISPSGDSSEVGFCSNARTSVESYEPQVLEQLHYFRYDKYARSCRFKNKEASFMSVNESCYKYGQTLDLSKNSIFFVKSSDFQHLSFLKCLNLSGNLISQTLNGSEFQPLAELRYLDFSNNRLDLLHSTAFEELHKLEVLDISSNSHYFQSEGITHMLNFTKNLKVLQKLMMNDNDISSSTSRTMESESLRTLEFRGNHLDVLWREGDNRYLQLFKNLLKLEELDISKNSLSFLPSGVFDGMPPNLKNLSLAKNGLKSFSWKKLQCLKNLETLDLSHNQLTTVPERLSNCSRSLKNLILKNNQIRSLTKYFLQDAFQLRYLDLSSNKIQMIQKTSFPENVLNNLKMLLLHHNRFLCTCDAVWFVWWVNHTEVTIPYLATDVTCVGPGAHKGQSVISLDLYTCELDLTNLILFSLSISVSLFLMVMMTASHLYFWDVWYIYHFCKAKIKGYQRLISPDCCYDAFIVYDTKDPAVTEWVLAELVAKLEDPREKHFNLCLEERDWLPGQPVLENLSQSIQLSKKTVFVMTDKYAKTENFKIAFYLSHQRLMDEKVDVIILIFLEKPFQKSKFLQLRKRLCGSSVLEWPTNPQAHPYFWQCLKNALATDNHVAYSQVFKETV
In short: as §1

human TLR8 = target: T3, human TLR8 (Homo sapiens, UniProt Q9NR97); assay: TLR8 inhibition reporter assay (HEK-Blue cells, SEAP reporter); details: HEK-Blue cells overexpressing human TLR8; stimulated with R848 15.9 μM; SEAP read after 22 hour; dose range 0.05 nM-50 μM
T3 construct: host or cells: HEK-Blue cells
T3 sequence (Q9NR97 27-1041): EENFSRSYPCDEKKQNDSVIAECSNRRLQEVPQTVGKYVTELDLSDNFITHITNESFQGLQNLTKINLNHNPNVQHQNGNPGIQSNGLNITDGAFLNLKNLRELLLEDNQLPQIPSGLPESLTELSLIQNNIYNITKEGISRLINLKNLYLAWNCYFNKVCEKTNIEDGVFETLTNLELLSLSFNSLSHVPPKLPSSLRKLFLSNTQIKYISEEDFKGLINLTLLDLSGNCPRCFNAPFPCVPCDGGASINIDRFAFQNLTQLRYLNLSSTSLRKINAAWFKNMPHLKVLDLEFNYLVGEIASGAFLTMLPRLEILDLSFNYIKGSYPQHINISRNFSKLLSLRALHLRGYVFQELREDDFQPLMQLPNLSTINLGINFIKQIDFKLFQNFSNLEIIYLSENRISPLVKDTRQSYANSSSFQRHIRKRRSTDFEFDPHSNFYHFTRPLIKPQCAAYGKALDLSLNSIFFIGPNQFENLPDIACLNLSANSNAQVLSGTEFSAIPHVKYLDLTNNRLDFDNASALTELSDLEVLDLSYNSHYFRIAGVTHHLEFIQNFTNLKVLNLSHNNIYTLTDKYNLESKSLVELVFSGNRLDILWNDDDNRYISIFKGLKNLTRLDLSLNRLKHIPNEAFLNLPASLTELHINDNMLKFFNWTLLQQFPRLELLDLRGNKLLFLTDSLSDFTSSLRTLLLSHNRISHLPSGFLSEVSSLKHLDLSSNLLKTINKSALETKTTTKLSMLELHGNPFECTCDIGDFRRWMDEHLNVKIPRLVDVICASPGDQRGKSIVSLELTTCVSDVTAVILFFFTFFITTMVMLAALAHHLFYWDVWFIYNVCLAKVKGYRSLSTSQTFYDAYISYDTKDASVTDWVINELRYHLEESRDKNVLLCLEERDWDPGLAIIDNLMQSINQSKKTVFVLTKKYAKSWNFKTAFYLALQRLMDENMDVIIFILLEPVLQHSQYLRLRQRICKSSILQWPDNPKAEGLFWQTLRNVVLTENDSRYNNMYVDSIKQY
In short: as §1

| Structure (SMILES) | IC50 (human TLR9) | IC50 (human TLR7) | IC50 (human TLR8) |
| --- | --- | --- | --- |
| CC(C)N1CCN(c2ccc(-c3ccc4[nH]c(=O)c(-c5ccc(C(N)=O)cc5)cc4c3)cc2)CC1 [Example 53, 4-(2-oxo-6-{4-[4-(propan-2-yl)piperazin-1-yl]phenyl}-1,2-dihydroquinolin-3-yl)benzamide] | 257 nM | 4520 nM | 1240 nM |
| CC(C)N1CCC(c2ccc(-c3ccc4[nH]c(=O)c(-c5ccc6nccnc6c5)cc4c3)cc2)CC1 [Example 93, 6-{4-[1-(propan-2-yl)piperidin-4-yl]phenyl}-3-(quinoxalin-6yl)-1,2-dihydroquinolin-2-one] | 651 nM | 1870 nM | 49800 nM |
| CC(=O)Nc1ccc(-c2cc3cc(-c4ccc(N5CCN(C(C)C)CC5)cc4)ccc3[nH]c2=O)cc1 [Example 5, N-[4-(2-oxo-6-{4-[4-(propan-2-yl)piperazin-1-yl]phenyl}-1,2-dihydroquinolin-3-yl)phenyl]acetamide] | 59 nM | 3870 nM | ≥ 50000 nM |
